The values that follow come from ChEMBL document CHEMBL3808345, “Discovery of triazolopyridine GS-458967, a late sodium current inhibitor (Late INai) of the cardiac NaV 1.5 channel with improved efficacy and potency relative to ranolazine” (Bioorg Med Chem Lett, 2016).

Data set [1] in a line: Clearance in iv dosed rat. It counts as ADME, organism-based. Particulars: in vivo.
Data set [2] in a line: Clearance in iv dosed cynomolgus monkey. It counts as ADME, organism-based, Macaca fascicularis. The note with it: in vivo.
Data set [3] can be described thus: Oral bioavailability in rat. It counts as ADME, organism-based. Particulars: in vivo.
Data set [4] is described as follows: Oral bioavailability in cynomolgus monkey. It counts as ADME, organism-based, Macaca fascicularis. The note with it: in vivo.
Data set [5] is described as follows: Lipophilicity, logD of the compound. It counts as physicochemical. The note with it: octanol/water.
Data set [6] can be described thus: Aqueous solubility of the compound in HCL at pH 2.2. It counts as physicochemical.
Data set [7] is described as follows: Aqueous solubility of the compound in PBS at pH 7.6. It counts as physicochemical.
Data set [8] can be described thus: Stability in human liver microsomes. It counts as ADME. For orientation: Liver microsomes are vesicles of endoplasmic reticulum, rich in cytochrome P450 enzymes.
Data set [9] can be described thus: Stability in rat liver microsomes. It counts as ADME.
Data set [10] can be described thus: Stability in dog liver microsomes. It counts as ADME, Canis lupus familiaris.
A short description of data set [11]: Permeability from apical to basolateral side in human Caco2 cells at 1 uM. The note with it: Caco-2, read-out: permeability. It counts as ADME, cell-based. On the technique in general: Caco-2 cells form a polarised layer with tight junctions and transporters.
Data set [12] in a line: Permeability from apical to basolateral side in human Caco2 cells at 10 uM. It counts as ADME, cell-based. Particulars: Caco-2, read-out: permeability.
Data set [13] in a line: Permeability from basolateral to apical side in human Caco2 cells at 1 uM. It counts as ADME, cell-based. The note with it: Caco-2, read-out: permeability.
Data set [14] is described as follows: Permeability from basolateral to apical side in human Caco2 cells at 10 uM. Particulars: Caco-2, read-out: permeability. It counts as ADME, cell-based.
A short description of data set [15]: AUC (0 to infinity) in po dosed rat. It counts as ADME, organism-based. The note with it: in vivo. More on the design: time infinity, route oral.
Data set [16] is described as follows: AUC (0 to infinity) in po dosed cynomolgus monkey. It counts as ADME, organism-based, Macaca fascicularis. The arrangement: time infinity, route oral. The note with it: in vivo.
A short description of data set [17]: Cmax in po dosed rat. It counts as ADME, organism-based. More on the design: route oral. The note with it: in vivo.
Data set [18] in a line: Cmax in po dosed cynomolgus monkey. It counts as ADME, organism-based, Macaca fascicularis. More on the design: route oral. Particulars: in vivo.
Data set [19] in a line: Tmax in po dosed rat. The note with it: in vivo. It counts as ADME, organism-based.
Data set [20] can be described thus: Tmax in po dosed cynomolgus monkey. It counts as ADME, organism-based, Macaca fascicularis. The note with it: in vivo.
The nature of data set [21]: Volume of distribution at steady state in iv dosed rat. It counts as ADME, organism-based. Particulars: in vivo, read-out: Vdss.
Data set [22] is described as follows: Volume of distribution at steady state in iv dosed cynomolgus monkey. It counts as ADME, organism-based, Macaca fascicularis. The note with it: in vivo, read-out: Vdss.

In general, clearance refers to a measure of how efficiently the substance is removed, as volume per time. The term logD denotes the decadic logarithm of the distribution of all forms, ionised or not, between an organic phase and buffer at a given pH. Broadly, the solubility is the dissolved amount per volume that the medium holds. In general, half-life refers to the time needed for the level to fall by half in the phase considered. For orientation: AUC(0-inf) means total exposure, with the tail of the curve extrapolated. One may read the Cmax as the highest concentration seen after dosing. For orientation: Tmax means the time from dosing to the highest level.

The structures appear in SMILES notation. ≈ marks a conversion by molar mass, not a printed value. Bounds are passed on as bounds.

`FC(F)(F)Oc1ccc(-c2ccc3nnc(C(F)(F)F)n3c2)cc1`: the clearance in data set [1] was 3.22 mL/min/kg; in data set [2] it was 0.217 mL/min/kg. The values for the bioavailability in [3] and in [4] were 105% and 83%, respectively. In [5], this compound had a logD of 3.38. Moreover, the solubility in data set [6] turned out to be 6 µM (≈ 2.08 µg/mL); in data set [7], 4.7 µM (≈ 1.63 µg/mL). Moreover, the figures for the half-life in [8], in data set [9] and in [10] were more than 6.58 h, 3.82 h and 1.17 h, respectively. The Papp A→B at 1 µM in [11] was 41.2 ×10⁻⁶ cm/s. Moreover, the Papp A→B at 10 µM in data set [12] is 27.9 ×10⁻⁶ cm/s. Further, in data set [13], the Papp B→A at 1 µM is 44 ×10⁻⁶ cm/s. Also, the Papp B→A at 10 µM in [14] was 35.2 ×10⁻⁶ cm/s. For the same compound, the figures for the area under the curve AUC(0-inf) in data set [15] and in [16] were 5.7 µM·h and 76.1 µM·h, respectively. For the same compound, the results for the Cmax in [17] and in data set [18] were 397 nM and 1480 nM, respectively. The values for the Tmax in data set [19] and in [20] were 2.7 h and 6 h, respectively. The Vd was 3.4 L in data set [21] and 0.6 L in [22].
